Measured values as given in patent US20240285552A1 (priority 2020, published 2024).
“Also recorded” adds a separate entry of the source. Counter-ions that a name gives are not always drawn. Like-named read-outs stand apart in the source and are kept apart here.

Columns and labels:
[1] = test system: SARS-CoV-2 spike pseudotyped lentivirus; assay: microbe, parasite or virus in culture; type: cell-based; conditions: for Percent Inhibition of fusion of SARS-CoV-2 spike pseudotyped lentivirus with HEK293-ACE2 cells: hydrochloride
SARS-CoV-2 USA_WA1/2020 [2] = conditions: hamster
in vitro = conditions: African green monkey
Vero E6 cells = conditions: Vero E6; at 30 μM; Example B
SARS-CoV-2 USA_WA1/2020 [3] = assay: microbe, parasite or virus in culture; type: cell-based
ACE1 = assay: Western blotting, ACE1 expression in A549 cells; type: cell-based, human; conditions: 50 μm, 24 hrs and 48 hrs
Protocol: (§1) Western blotting. A549 “Lung” cells (RRID:CVCL_COQ5) were harvested in a radioimmuno precipitation assay (RIPA) buffer (Tris 10 mM pH 7.4, containing 140 mM NaCl, 1 mM EDTA, 1 mM NaF, 0.10% SDS, 0.50% sodium deoxycholate 0.1% NP-40, 1% Triton X-100) in the presence of protease inhibitors (Thermo Fisher) at 24 hrs. and 48 hrs. Protein concentration was determined by was determined using bicinchoninic acid with bovine serum albumin as a standard (Thermo Fisher). Equal amounts of protein were loaded and separated by SDS-PAGE using 10% pre-casted gels (Biorad). Proteins were electroblotted onto nitrocellulose membranes (Bio-Rad). The blots were blocked using 5% (w/v) milk in Tris-buffered saline containing 0.5% (v/v) Tween-20. The membranes were then incubated with different antibodies. Antibodies directed against ACE1 (ab28311) and ACE2 (ab108209) were used and the GAPDH antibody was used as loading control for cell lysates. Primary and secondary antibodies were diluted in Tris-buffered saline containing (0.5% v/v) Tween-20 (TBS-T) supplemented with 5% milk. The bands were visualized by incubating the blots with enhanced chemiluminescence reagent (ECL, Biorad) and visualized using chemidoc. Band intensities were quantified by using imagelab software Biorad.

ACE2 = assay: Western blotting, ACE2 expression in A549 cells; type: cell-based, human; conditions: 50 μm, 24 hrs and 48 hrs, hydrochloride
Protocol: as §1

[4] = biological target: T1, recombinant human ACE2 (rhACE2) (Homo sapiens, UniProt Q9BYF1); assay: ACE2 exopeptidase inhibitor screening assay (fluorogenic substrate), AMB and BHH; type: biochemical
T1 construct: purchased BPS Bioscience 79923
Protocol: ACE2 Inhibitor Screening Assay. An ACE2 exopeptidase Inhibitor screening assay kit with the fluorogenic substrate (Catalogue #79923) was purchased from BPS Bioscience (San Diego, CA) and modified to measure the exopeptidase activity of ACE2 in the presence and absence of inhibitors (BPSBioscience, 2022). Following the manufacturer's directions, the fluorescence assay was carried out in a 96-well black flat-bottom plate with a final reaction volume of 50 μL. 50 mM stock solutions of BHH and AMB in 100% DMSO were prepared. Compounds were serially diluted in DMSO as follows: 500, 250, 100, 50, 10, 1, 0.1 μM. All experiments were done in triplicates and repeated twice. A positive control of enzyme treated with vehicle alone (2 percent DMSO) and a blank control with no enzyme were included on each plate.
Each reaction had 24 μL of purified recombinant human ACE2 protein (0.42 ng/L) in ACE2 buffer, 1 μL of the compound at different concentrations, and 25 μL ACE2 fluorogenic substrate. The final volume of the reaction was 50 μL. The reaction mixtures were incubated for 1 hr at room temperature (22° C.) and protected from light. After that, the fluorescence intensities (λExcitation=535 nm, λEmission=595 nm) were measured using a Spectramax iD3 multimode plate reader. The background hydrolysis was subtracted, and the data were fitted to a four-parameter logistic (variable slope) equation using GraphPad prism software 9.1.

[5] = biological target: T2, rhACE2 and SARS-CoV-2 Spike (RBD) protein interaction (Homo sapiens, UniProt Q9BYF1); assay: Spike (RBD)-ACE2 binding assay (ELISA); parameters: species or system human; SARS-CoV-2; conditions: for IC50: bell-shaped model, AMB, BHH
T2 construct: purchased RayBiotech CoV-SACE2-1
T2 sequence (Q9BYF1 18-740): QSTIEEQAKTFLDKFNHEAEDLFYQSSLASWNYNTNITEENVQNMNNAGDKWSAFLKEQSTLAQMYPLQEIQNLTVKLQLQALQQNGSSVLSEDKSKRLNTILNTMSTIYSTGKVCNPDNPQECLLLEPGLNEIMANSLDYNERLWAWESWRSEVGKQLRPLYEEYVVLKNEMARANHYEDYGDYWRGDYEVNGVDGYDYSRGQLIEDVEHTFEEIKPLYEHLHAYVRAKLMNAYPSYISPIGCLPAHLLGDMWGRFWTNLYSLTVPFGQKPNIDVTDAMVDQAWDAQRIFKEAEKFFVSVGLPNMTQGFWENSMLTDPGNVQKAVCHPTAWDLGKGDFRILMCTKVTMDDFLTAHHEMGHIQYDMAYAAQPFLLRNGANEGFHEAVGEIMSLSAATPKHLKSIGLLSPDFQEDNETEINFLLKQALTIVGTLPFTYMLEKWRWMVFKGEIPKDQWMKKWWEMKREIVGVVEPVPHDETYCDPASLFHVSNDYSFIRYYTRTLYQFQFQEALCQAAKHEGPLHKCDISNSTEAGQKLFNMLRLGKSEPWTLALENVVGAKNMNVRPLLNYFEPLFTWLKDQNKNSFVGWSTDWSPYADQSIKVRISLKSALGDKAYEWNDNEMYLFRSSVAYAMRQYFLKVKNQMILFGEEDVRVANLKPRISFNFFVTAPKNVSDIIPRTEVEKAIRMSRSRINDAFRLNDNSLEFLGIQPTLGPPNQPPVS

T1 sequence (Q9BYF1 18-805): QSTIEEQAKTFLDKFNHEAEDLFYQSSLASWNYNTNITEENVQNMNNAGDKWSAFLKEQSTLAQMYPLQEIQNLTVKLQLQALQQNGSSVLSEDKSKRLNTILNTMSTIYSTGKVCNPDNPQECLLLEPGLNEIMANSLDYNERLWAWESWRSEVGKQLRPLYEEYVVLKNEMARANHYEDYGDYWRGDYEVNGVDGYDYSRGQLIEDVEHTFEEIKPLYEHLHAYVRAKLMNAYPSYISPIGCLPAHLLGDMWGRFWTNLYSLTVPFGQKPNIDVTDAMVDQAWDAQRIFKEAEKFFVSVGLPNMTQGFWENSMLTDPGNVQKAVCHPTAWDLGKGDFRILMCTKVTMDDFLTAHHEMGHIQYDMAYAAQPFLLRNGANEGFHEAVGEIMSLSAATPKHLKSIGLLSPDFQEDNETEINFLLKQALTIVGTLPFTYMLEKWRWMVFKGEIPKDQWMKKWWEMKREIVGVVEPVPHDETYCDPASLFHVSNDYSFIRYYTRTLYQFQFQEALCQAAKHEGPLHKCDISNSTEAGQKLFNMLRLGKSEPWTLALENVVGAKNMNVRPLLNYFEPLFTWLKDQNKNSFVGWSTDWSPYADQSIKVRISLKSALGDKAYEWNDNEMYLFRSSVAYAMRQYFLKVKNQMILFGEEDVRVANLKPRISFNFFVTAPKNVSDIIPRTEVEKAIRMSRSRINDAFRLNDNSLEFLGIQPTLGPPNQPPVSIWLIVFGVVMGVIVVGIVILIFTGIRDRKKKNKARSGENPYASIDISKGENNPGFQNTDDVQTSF

**Q.** What does the source list for `CN(Cc1cc(Br)cc(Br)c1N)C1CCCCC1` [BHH, Bromhexine hydrochloride]?
**A.** Percent Inhibition of fusion of SARS-CoV-2 spike pseudotyped lentivirus with HEK293-ACE2 cells ([1]; 50 μM, Table 3): 61%; Percent Inhibition of fusion of SARS-CoV-2 spike pseudotyped lentivirus with HEK293-ACE2 cells ([1]; 100 μM, Table 3): 76%; inhibition at 50 µM ([1]; Severe acute respiratory syndrome coronavirus 2, 50 μM, Table 3, read-out: Percent Inhibition of fusion of SARS-CoV-2 spike pseudotyped lentivirus with HEK293-ACE2 cells): 57%; inhibition at 100 µM ([1]; Severe acute respiratory syndrome coronavirus 2, 100 μM, Table 3, read-out: Percent Inhibition of fusion of SARS-CoV-2 spike pseudotyped lentivirus with HEK293-ACE2 cells): 73%; inhibition at 10 µM ([1]; Severe acute respiratory syndrome coronavirus 2, HEK293, 10 μM, Table 2, read-out: Percent (%) Inhibition of Pseudo virus Entry in HEK293 Kidney Cells, SARS-COV-2): 50%; inhibition at 100 µM ([1]; Severe acute respiratory syndrome coronavirus 2, HEK293, 100 μM, Table 2, read-out: Percent (%) Inhibition of Pseudo virus Entry in HEK293 Kidney Cells, SARS-COV-2): ≤ 100%; Overall Gmean Days 1-4, N2 gRNA, rectal swabs (SARS-CoV-2 USA_WA1/2020 [2]): 1.00E+05 copies/swab; Overall Gmean Days 1-4 higher than Group 3, N2 gRNA, rectal swabs (SARS-CoV-2 USA_WA1/2020 [2]): 2 fold; Peak viral load versus Group 3, N2 gRNA, rectal swabs (SARS-CoV-2 USA_WA1/2020 [2]): similar; SARS-CoV-2 genome load, N2 gRNA, lungs (SARS-CoV-2 USA_WA1/2020 [2]; Day 4): 6.20E+09 copies/gram; SARS-CoV-2 genome load, N2 gRNA, trachea (SARS-CoV-2 USA_WA1/2020 [2]; Day 4): 1.21E+09 copies/gram; active replication load higher than Group 3, E sgRNA, lungs (SARS-CoV-2 USA_WA1/2020 [2]; Day 4): 3 fold; active replication load, E sgRNA, lungs (SARS-CoV-2 USA_WA1/2020 [2]; Day 4): 4.41E+07 copies/gram; active replication load, E sgRNA, nasal turbinate (SARS-CoV-2 USA_WA1/2020 [2]; Day 4): 1.67E+08 copies/gram; active replication load, E sgRNA, trachea (SARS-CoV-2 USA_WA1/2020 [2]; Day 4): 2.58E+06 copies/gram; genome load higher than Group 3, N2 gRNA, lungs (SARS-CoV-2 USA_WA1/2020 [2]; Day 4): 3 fold; replication load higher than Group 3, E sgRNA, trachea (SARS-CoV-2 USA_WA1/2020 [2]; Day 4): 2 fold; viral load higher than Group 3, N2 gRNA, trachea (SARS-CoV-2 USA_WA1/2020 [2]; Day 4): 2 fold; serum IL-6 levels versus Group 3 (SARS-CoV-2 USA_WA1/2020 [2]; Day 4, ELISA, P<0.05): significantly lower; serum TNF-α versus Group 3 (SARS-CoV-2 USA_WA1/2020 [2]; Day −1, Day 2 (P<0.05), Day 4 (P<0.001)): significantly low; serum IL-10 levels between groups (SARS-CoV-2 USA_WA1/2020 [2]; Days −1, 2, 4): No significance difference; incidence and severity of microscopic lesions versus vehicle control (SARS-CoV-2 USA_WA1/2020 [2]; lung histopathology): similar; lung viral load by TCID50 assay versus vehicle control (SARS-CoV-2 USA_WA1/2020 [2]; lung samples Day 4): No difference; SARS-CoV-2 genome load, N2 gRNA, nasal turbinate (SARS-CoV-2 USA_WA1/2020 [2]; necropsy Day 4): 3.57E+10 copies/gram; gross lesions in the lung (SARS-CoV-2 USA_WA1/2020 [2]; necropsy Day 4): reduced gross lesions in the lung; Overall Gmean Days 1-4, E sgRNA, pharyngeal swabs (SARS-CoV-2 USA_WA1/2020 [2]; AMB 500, BHH 200 mg/kg/day PO): 4.82E+04 copies/swab; Overall Gmean Days 1-4 lower than Group 3, E sgRNA, pharyngeal swabs (SARS-CoV-2 USA_WA1/2020 [2]; AMB 500, BHH 200 mg/kg/day PO): 2 fold; Overall Gmean Days 1-4 viral load lower than Group 3, N2 gRNA, pharyngeal swabs (SARS-CoV-2 USA_WA1/2020 [2]; AMB 500, BHH 200 mg/kg/day PO): 2 fold; Overall Gmean viral load Days 1-4, N2 gRNA, pharyngeal swabs (SARS-CoV-2 USA_WA1/2020 [2]; AMB 500, BHH 200 mg/kg/day PO): 4.93E+07 copies/swab; Peak viral load lower than vehicle (Group 3), N2 gRNA, pharyngeal swabs (SARS-CoV-2 USA_WA1/2020 [2]; AMB 500, BHH 200 mg/kg/day PO): 3 fold; Peak viral replication load lower than Group 3, E sgRNA, pharyngeal swabs (SARS-CoV-2 USA_WA1/2020 [2]; AMB 500, BHH 200 mg/kg/day PO): 4 fold; tolerability of administered doses (SARS-CoV-2 USA_WA1/2020 [2]; AMB 500, BHH 200 mg/kg/day PO, up to 5 days): tolerated the administered doses well; Peak viral load, N2 gRNA, pharyngeal swabs (SARS-CoV-2 USA_WA1/2020 [2]; AMB 500, BHH 200 mg/kg/day PO, peak Day 2 (AMB), Day 1 (BHH)): 4.93E+07 copies/swab; Peak viral replication load, E sgRNA, rectal swabs (SARS-CoV-2 USA_WA1/2020 [2]; peak Day 1 (AMB), Day 2 (BHH)): 4.29 copies/swab; Peak viral replication load, E sgRNA, pharyngeal swabs (SARS-CoV-2 USA_WA1/2020 [2]; peak Day 2 (AMB), Day 1 (BHH)): 2.65E+05 copies/swab; Peak viral load, N2 gRNA, rectal swabs (SARS-CoV-2 USA_WA1/2020 [2]; peak on Day 2): 1.54E+05 copies/swab; CC50 at 72 h (in vitro; 50% cytotoxic concentration (CC50), Vero E6, 72 hours, Examples A and B, highest concentration 30 μM): > 30 µM; CC50 at 72 h (in vitro; Cytotoxicity CC50, Vero E6, 72 hours, Example C (Table 4)): 58.3 µM; percent minimum viability (Vero E6 cells): 103.87%; Concentration at Maximum % Inhibition (SARS-CoV-2 USA_WA1/2020 [3]; Example C (Table 3)): 37.5 µM; Maximum Inhibition (SARS-CoV-2 USA_WA1/2020 [3]; Example C (Table 3)): 72.39%; IC50 (SARS-CoV-2 USA_WA1/2020 [3]; Severe acute respiratory syndrome coronavirus 2, Vero C1008, Example C (Table 3), read-out: IC 50 against SARS-COV-2 Induced Cytopathic Effect in Vero E6 Cells): ~31.6 µM; IC50 (SARS-CoV-2 USA_WA1/2020 [3]; Severe acute respiratory syndrome coronavirus 2, Vero C1008, Vero E6, Example B, highest concentration tested 30 μM, read-out: IC50 against SARS-CoV-2 infection induced CPE): ~21.7 µM; inhibition at 30 µM (SARS-CoV-2 USA_WA1/2020 [3]; Severe acute respiratory syndrome coronavirus 2, Vero C1008, at 30 μM, Example B, read-out: inhibition of SARS-CoV-2 induced CPE at maximum concentration): ~91.1%; EC50 (SARS-CoV-2 USA_WA1/2020 [3]; Severe acute respiratory syndrome coronavirus 2, Vero C1008, read-out: EC50 values against SARS-CoV-2 (summary statement)): ~30 µM; change of ACE1 expression (ACE1): no changes; change of ACE2 expression (ACE2): no changes; change of ACE2 expression (ACE2; listed as BBH): does not affect; ACE2 Exopeptidase Activity: Percent Activity ([4]; 0.1 uM): 111.3%; inhibition at 0.1 µM ([4]; 0.1 uM, read-out: ACE2 Exopeptidase Activity: Percent Inhibition): -11.3%; ACE2 Exopeptidase Activity: Percent Activity ([4]; 1 uM): 114.7%; inhibition at 1 µM ([4]; 1 uM, read-out: ACE2 Exopeptidase Activity: Percent Inhibition): -14.7%; ACE2 Exopeptidase Activity: Percent Activity ([4]; 10 uM): 104.6%; inhibition at 10 µM ([4]; 10 uM, read-out: ACE2 Exopeptidase Activity: Percent Inhibition): -4.6%; ACE2 Exopeptidase Activity: Percent Activity ([4]; 50 uM): 2.7%; inhibition at 50 µM ([4]; 50 uM, read-out: ACE2 Exopeptidase Activity: Percent Inhibition): 97.3%; ACE2 Exopeptidase Activity: Percent Activity ([4]; 100 uM): −6.2%; inhibition at 100 µM ([4]; 100 uM, read-out: ACE2 Exopeptidase Activity: Percent Inhibition): 106%; ACE2 Exopeptidase Activity: Percent Activity ([4]; 250 uM): −6.7%; inhibition at 250 µM ([4]; 250 uM, read-out: ACE2 Exopeptidase Activity: Percent Inhibition): 107%; ACE2 Exopeptidase Activity: Percent Activity ([4]; 500 uM): −6.6%; inhibition at 500 µM ([4]; 500 uM, read-out: ACE2 Exopeptidase Activity: Percent Inhibition): 107%; IC50 ([4]; read-out: IC50, exopeptidase function of ACE2): 26 µM; effect on exopeptidase activity of rhACE2 ([4]; tested 0.1 to 500 μM, hydrochloride): completely inhibited; effect on Spike (RBD)-rhACE2 interaction ([5]; 100 μM to 100 nM, hydrochloride): enhanced the interaction at higher concentrations; also recorded: increased the binding of ACE2 and RBD at high concentrations of 100 and 50 μM but blocked the interaction at low concentrations; IC50 ([5]; highest tested 100 μM, read-out: Estimated Relative IC50 against rhACE2 and RBD Interaction Assay, IC50_2): 42.9 µM; IC50 ([5]; read-out: Estimated Relative IC50 against rhACE2 and RBD Interaction Assay, IC50_1): 1.19 µM
